Assay results from patent publication US20260193180A1, “AUTOPHAGY INDUCING COMPOUNDS AND USES THEREOF” (SAMSARA THERAPEUTICS INC., priority 2022, published 2026).
Counter-ions that a name gives are not always drawn.

Tested on: Human osteosarcoma U2OS cells
Experiment: Acidic vesicle formation (lysosome/autolysosome staining, LysoView 633 / LysoTracker Deep Red), stimulation of autophagy
Assay type: cell-based
Conditions: 24 hours; for activation at 0.8 µM: read-out: Activity (percentage increase in acidic vesicle formation over the DMSO-treated control); for activation at 10 µM: read-out: increase in acidic vesicle formation over the DMSO-treated control
Procedure: Lysosomes play a fundamental role in the autophagic pathway by fusing with autophagosomes and creating ‘autolysosomes’ in order to digest their contents. Stimulation of lysosome and autolysosome formation by a compound is indicative of a stimulation of autophagy. The ability of compounds to stimulate lysosome and autolysosome formation, and thus autophagy, in live cells was assessed via fluorescent microscopy using various fluorescent stains for labelling and tracking acidic organelles (including lysosomes and autolysosomes) such as: LysoView™ 650 (70059 and 70059-T, Biotium), LysoView™633 (70058 and 70058-T, Biotium) and LysoTracker™ Deep Red (L12492, ThermoFisher Scientific). The cellular phenotype was quantitatively assessed for the induction of acidic vesicle formation and compared to a non-treated control, thus providing a measure of the ability of the compound under investigation to stimulate autophagy.
Representative procedure using LysoView™633 dye or LysoTracker™ Deep Red dye: Human osteosarcoma U2OS cells (40,000 cells/well) were seeded in a 24 well glass bottom plate (Sensoplate, Greiner Bio-One) and were incubated overnight in a humidified atmosphere at 37° C. and 5% CO2. Cells were grown in DMEM (Gibco) supplemented with 10% Fetal Bovine Serum (FBS) and 100 units/ml penicillin and 100 μg/ml streptomycin (Invitrogen). After the attachment period, cells were treated with different compounds of interest (at various concentrations in DMSO) or DMSO (non-treated control) in cell culture medium and were incubated for 24 hours. Compound-containing medium was removed and cells were incubated with pre-warmed cell culture medium containing 1× LysoView™ 633 (70058 and 70058-T, Biotium) or 50 nM LysoTracker™ Deep Red (L12492, ThermoFisher Scientific) for 45 minutes at 37° C. Finally, cell nuclei were stained for 10 minutes using Hoechst 33342 (1 μg/mL) and then the medium was replaced with fresh medium. The 24 well plate was then fitted into a heated stage on the microscope and cells maintained at 37° C. Images were captured using appropriate filter set for Cy5 and DAPI detection with the EVOS M7000 Microscope (ThermoFisher Scientific). The cellular phenotype was visually assessed for the induction of acidic vesicle formation relative to the non-treated control; multiple images were acquired and analysed using ImageJ or Cell Profiler.

SMILES | activation at 0.8 µM | activation at 10 µM
CCOc1ccc(C(F)(F)F)cc1CCN1CC[C@@H](CN)C1 [Compound 42, (S)-(1-(2-ethoxy-5-(trifluoromethyl)phenethyl)pyrrolidin-3-yl)methanamine hydrochloride] | 50 to 100% | ≥ 25%
CCCOc1ccc(Cl)cc1CCN1CCC[C@@H](CN)C1 [Compound 43, (S)-(1-(5-chloro-2-propoxyphenethyl)piperidin-3-yl)methanamine hydrochloride] | 50 to 100% | ≥ 25%
NC[C@@H]1CCN(CCc2cc(Cl)ccc2OCC2CC2)C1 [Compound 44, (S)-(1-(5-chloro-2-(cyclopropylmethoxy)phenethyl)pyrrolidin-3-yl)methanamine hydrochloride] | 50 to 100% | ≥ 25%
CCOc1ccc(Cl)cc1CCN1CCC[C@@H](CN)C1 [Compound 45, (S)-(1-(5-chloro-2-ethoxyphenethyl)piperidin-3-yl)methanamine hydrochloride] | 50 to 100% | ≥ 25%
C[C@H]1CN(Cc2cc(Cl)ccc2OCC2CC2)CCN1 [Compound 46, (S)-1-(5-chloro-2-(cyclopropylmethoxy)benzyl)-3-methylpiperazine hydrochloride] | 10 to 30% | ≥ 25%
CCCOc1ccc(Cl)cc1CN1CCN[C@@H](C)C1 [Compound 47, (S)-1-(5-chloro-2-propoxybenzyl)-3-methylpiperazine hydrochloride] | 30 to 50% | ≥ 25%
CCCOc1ccc(Cl)cc1CCN1CC[C@@H](CN)C1 [Compound 48, (S)-(1-(5-chloro-2-propoxyphenethyl)pyrrolidin-3-yl)methanamine hydrochloride] | 10 to 30% | ≥ 25%
CCOc1ccc(Cl)cc1CCN1CC[C@@H](CN)C1 [Compound 49, (S)-(1-(5-chloro-2-ethoxyphenethyl)pyrrolidin-3-yl)methanamine hydrochloride] | – | ≥ 25%
CCOc1ccc(Cl)cc1CN1CC[C@@H](CN(C)C)C1 [Compound 50, (S)-1-(1-(5-chloro-2-ethoxybenzyl)pyrrolidin-3-yl)-N,N-dimethylmethanamine] | 10 to 30% | ≥ 25%
CCOc1ccc(Cl)cc1CN1CC[C@@H](CNC)C1 [Compound 51, (S)-1-(1-(5-chloro-2-ethoxybenzyl)pyrrolidin-3-yl)-N-methylmethanamine] | – | ≥ 25%
CC(C)COc1ccc(Cl)cc1CN1CC[C@@H](CN)C1 [Compound 52, (S)-(1-(5-chloro-2-isobutoxybenzyl)pyrrolidin-3-yl)methanamine hydrochloride] | 10 to 30% | ≥ 25%
CC(C)Oc1ccc(Cl)cc1CN1CC[C@@H](CN)C1 [Compound 53, (S)-(1-(5-chloro-2-isopropoxybenzyl)pyrrolidin-3-yl)methanamine hydrochloride] | – | ≥ 25%
COCCOc1ccc(Cl)cc1CN1CC[C@@H](CN)C1 [Compound 54, (S)-(1-(5-chloro-2-(2-methoxyethoxy)benzyl)pyrrolidin-3-yl)methanamine hydrochloride] | – | ≥ 25%
NC[C@@H]1CCN(Cc2cc(Cl)cc3c2OCO3)C1 [Compound 55, (S)-(1-((6-chlorobenzo[d][1,3]dioxol-4-yl)methyl)pyrrolidin-3-yl)methanamine hydrochloride] | > 100% | ≥ 25%
CCOc1ccc(Cl)cc1CN1CC[C@H](CN)C1 [Compound 56, (R)-(1-(5-chloro-2-ethoxybenzyl)pyrrolidin-3-yl)methanamine hydrochloride] | > 100% | ≥ 25%
CCOc1ccc(CN2CC[C@@H](CN)C2)c(F)c1Cl [Compound 57, (S)-(1-(3-chloro-4-ethoxy-2-fluorobenzyl)pyrrolidin-3-yl)methanamine hydrochloride] | – | ≥ 25%
CCOc1cc(F)c(CN2CC[C@@H](CN)C2)cc1Cl [Compound 58, (S)-(1-(5-chloro-4-ethoxy-2-fluorobenzyl)pyrrolidin-3-yl)methanamine hydrochloride] | – | ≥ 25%
CCOc1cc(C#N)c(Cl)cc1CN1CC[C@H](CN)C1 [Compound 60, (R)-4-((3-(aminomethyl)pyrrolidin-1-yl)methyl)-2-chloro-5-ethoxybenzonitrile hydrochloride] | – | ≥ 25%
CCOc1cc(C#N)c(Cl)cc1CN1CC[C@@H](CN)C1 [Compound 61, (S)-4-((3-(aminomethyl)pyrrolidin-1-yl)methyl)-2-chloro-5-ethoxybenzonitrile hydrochloride] | – | ≥ 25%
CCOc1ccc(Cl)cc1CCN1CCO[C@@H](CN)C1 [Compound 63, (S)-(4-(5-chloro-2-ethoxyphenethyl)morpholin-2-yl)methanamine hydrochloride] | – | ≥ 25%
CCOc1ccc(C#N)cc1CCN1CCC[C@@H](CN)C1 [Compound 64, (S)-3-(2-(3-(aminomethyl)piperidin-1-yl)ethyl)-4-ethoxybenzonitrile hydrochloride] | – | ≥ 25%
N#Cc1ccc(OCC2CC2)c(CCN2CC[C@@H](CN)C2)c1 [Compound 66, (S)-3-(2-(3-(aminomethyl)pyrrolidin-1-yl)ethyl)-4-(cyclopropylmethoxy)benzonitrile hydrochloride] | – | ≥ 25%
CCOc1ccc(CCN2CCC[C@@H](CN)C2)cc1Cl [Compound 67, (S)-(1-(3-chloro-4-ethoxyphenethyl)piperidin-3-yl)methanamine hydrochloride] | – | ≥ 25%
CCOc1ccc(Cl)cc1CN1CC[C@H](N)C1 [Compound 69, (S)-1-(5-chloro-2-ethoxybenzyl)pyrrolidin-3-amine hydrochloride] | – | ≥ 25%
